In PubChem BioAssay AID248 (DTP/NCI, 2004):
Inconclusive results and toxic doses are left out.

System: L1210 leukemia ip in BDF1 mice, survival T/C
Experiment: NCI In Vivo Anticancer Drug Screen. Data for tumor model L1210 Leukemia (intraperitoneal) in B6D2F1 (BDF1) mice
Details: endpoint: mean survival time, higher = longer survival
Procedure, shortened: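 Read-out is survival time, reported as the treated-group measurement over the vehicle-control measurement.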

[1] = dose: 100.0 mg/kg/injection, schedule: Q01DX001 (ip), vehicle: carboxymethylcellulose (CMC)
[2] = dose: 200.0 mg/kg/injection, schedule: Q01DX001 (ip), vehicle: carboxymethylcellulose (CMC)
[3] = dose: 400.0 mg/kg/injection, schedule: Q01DX001 (ip), vehicle: carboxymethylcellulose (CMC)
[4] = dose: 100.0 mg/kg/injection, schedule: Q01DX001 (ip), vehicle: saline
[5] = dose: 200.0 mg/kg/injection, schedule: Q01DX001 (ip), vehicle: saline
[6] = dose: 400.0 mg/kg/injection, schedule: Q01DX001 (ip), vehicle: saline
[7] = dose: 100.0 mg/kg/injection, schedule: Q04DX002 (ip), vehicle: Klucel (hydroxypropylcellulose) (HPC)
[8] = dose: 200.0 mg/kg/injection, schedule: Q04DX002 (ip), vehicle: Klucel (hydroxypropylcellulose) (HPC)
[9] = dose: 400.0 mg/kg/injection, schedule: Q04DX002 (ip), vehicle: Klucel (hydroxypropylcellulose) (HPC)
[10] = dose: 100.0 mg/kg/injection, schedule: Q01DX009 (ip), vehicle: Klucel (hydroxypropylcellulose) (HPC)
[11] = dose: 200.0 mg/kg/injection, schedule: Q01DX009 (ip), vehicle: Klucel (hydroxypropylcellulose) (HPC)

COC(OC)c1[nH]c(=S)[nH]c(=O)c1Cc1cc(C)ccc1C
T/C (dose: 100.0 mg/kg/injection, schedule: Q01DX009 (ip), vehicle: saline): 99 % of control
T/C (dose: 200.0 mg/kg/injection, schedule: Q01DX009 (ip), vehicle: saline): 101 % of control
T/C (dose: 400.0 mg/kg/injection, schedule: Q01DX009 (ip), vehicle: saline): 103 % of control

Cc1cc(S(=O)(=O)F)cc(Cl)c1S
T/C (dose: 25.0 mg/kg/injection, schedule: Q04DX002 (ip), vehicle: saline with Tween-80): 99 % of control
T/C (dose: 50.0 mg/kg/injection, schedule: Q04DX002 (ip), vehicle: saline with Tween-80): 92 % of control

CCOc1ccccc1/C=N/NC(=O)C(O)(c1ccccc1)c1ccccc1
T/C [1]: 101 % of control
T/C [2]: 101 % of control
T/C [3]: 97 % of control

N#Cc1ccccc1CCc1ccccc1
T/C (dose: 50.0 mg/kg/injection, schedule: Q01DX001 (ip), vehicle: saline): 106 % of control
T/C [4]: 102 % of control
T/C [5]: 106 % of control
T/C [6]: 98 % of control

Cc1cc(C)c(NC(=O)c2ccc(Cl)cc2Cl)c(C)c1
T/C [7]: 95 % of control
T/C [8]: 106 % of control
T/C [9]: 95 % of control

CC(C)(C)NC(=O)NCc1ccc(Cl)c(Cl)c1
T/C [10]: 92 % of control
T/C [11]: 93 % of control
T/C (dose: 400.0 mg/kg/injection, schedule: Q01DX009 (ip), vehicle: Klucel (hydroxypropylcellulose) (HPC)): 98 % of control

C=CCN(CC=C)CCNc1cc(C)nc(/N=C(\N)Nc2ccc(Cl)c(Cl)c2)n1
T/C (dose: 75.0 mg/kg/injection, schedule: Q01DX001 (ip), vehicle: other): 92 % of control
T/C (dose: 150.0 mg/kg/injection, schedule: Q01DX001 (ip), vehicle: other): 92 % of control
T/C (dose: 300.0 mg/kg/injection, schedule: Q01DX001 (ip), vehicle: other): 92 % of control

CC(C)CCCC(C)C1CCC2C3CC4C(F)(Cl)C45CC4(CCC5(C)C3CCC12C)OCCO4 (stereo not drawn)
T/C (dose: 100.0 mg/kg/injection, schedule: Q04DX002 (ip), vehicle: other): 87 % of control
T/C (dose: 200.0 mg/kg/injection, schedule: Q04DX002 (ip), vehicle: other): 114 % of control
T/C (dose: 400.0 mg/kg/injection, schedule: Q04DX002 (ip), vehicle: other): 93 % of control

Cc1ccc(S(=O)(=O)N(CCO)CCO)cc1
T/C (dose: 100.0 mg/kg/injection, schedule: Q04DX003 (ip), vehicle: Klucel (hydroxypropylcellulose) (HPC)): 101 % of control
T/C (dose: 200.0 mg/kg/injection, schedule: Q04DX003 (ip), vehicle: Klucel (hydroxypropylcellulose) (HPC)): 100 % of control
T/C (dose: 400.0 mg/kg/injection, schedule: Q04DX003 (ip), vehicle: Klucel (hydroxypropylcellulose) (HPC)): 92 % of control

Cc1cc2nc(NC(=O)C3CC3)sc2cc1C
T/C [10]: 91 % of control
T/C [11]: 91 % of control

CCCCC(=O)c1ccc(OC)c(C)c1
T/C [1]: 101 % of control
T/C [2]: 97 % of control
T/C [3]: 103 % of control

O=C(O)c1cc(I)cc(Br)c1I
T/C [7]: 102 % of control
T/C [8]: 110 % of control
T/C [9]: 105 % of control

CCCCCCC(CCCCCC)CCCCCC
T/C (dose: 100.0 mg/kg/injection, schedule: Q01DX001 (ip), vehicle: saline with Tween-80): 99 % of control
T/C (dose: 200.0 mg/kg/injection, schedule: Q01DX001 (ip), vehicle: saline with Tween-80): 100 % of control
T/C (dose: 400.0 mg/kg/injection, schedule: Q01DX001 (ip), vehicle: saline with Tween-80): 99 % of control

CC1c2cc(O)c(O)cc2CCN1C (stereo not drawn)
T/C (dose: 75.0 mg/kg/injection, schedule: Q01DX001 (ip), vehicle: saline): 104 % of control
T/C (dose: 150.0 mg/kg/injection, schedule: Q01DX001 (ip), vehicle: saline): 110 % of control

CC[N+]12CC[N+](CC)(CC1)C2
T/C [4]: 103 % of control
T/C [5]: 101 % of control
T/C [6]: 91 % of control
